Results reported in publication PMC12724307, “Characterization of the initial degradation mechanism involved in C-glycosylated isoflavone puerarin in soil microorganism” (Applied and Environmental Microbiology, 2025).

Tested on: T1, PurA
T1 construct: ORF of 1,551 nt, pET24a(+), His-tagged, E. coli Rosetta2 (DE3), Ni-column; calculated 55,563 Da; monomer
Assay: peroxidase-coupled H2O2 assay (DAOS/4-aminoantipyrine)
Type: biochemical, Paenarthrobacter sp. No. 37
Settings: oxygen as electron acceptor; Tris-HCl pH 8.0; 28°C; apparent steady-state constants

Structure (SMILES): O=c1c(-c2ccc(O)cc2)coc2c([C@@H]3O[C@H](CO)[C@@H](O)[C@H](O)[C@H]3O)c(O)ccc12 [compound 1, puerarin]
- Km: 43.4 ± 6.6 µM
